Patent publication US20100267561A1, “HERBICIDAL PYRIDAZINONE DERIVATIVES” (priority 2007, published 2010)

Assays:
Format in all cases: in vivo
[1] = tested on: bermudagrass (Cynodon dactylon); test: Test B pre-/postemergence plant response; conditions: for Bermudagrass plant response rating: 8 g ai/ha
Outline: (§1)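 Seeds were sown and sprayed preemergence, while plants at 2 to 18 cm (1- to 4-leaf stage) got postemergence sprays. Compounds were formulated in a non-phytotoxic solvent mixture with surfactant. After 13 to 15 days in a greenhouse, injury was rated visually against untreated controls, 0 (no effect) to 100 (complete control).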

[2] = tested on: blackgrass (Alopecurus myosuroides); test: Test B pre-/postemergence plant response; conditions: for Blackgrass plant response rating: 8 g ai/ha
Outline: as §1

corn (Zea mays) = test: Test B pre-/postemergence plant response
Outline: as §1

[3] = tested on: eastern black (E.B.) nightshade (Solanum ptycanthum); test: Test B pre-/postemergence plant response; conditions: Preemergence
Outline: as §1

[4] = tested on: giant foxtail (Setaria faberii); test: Test B pre-/postemergence plant response
Outline: as §1

[5] = tested on: lambsquarters (Chenopodium album); test: Test B pre-/postemergence plant response
Outline: as §1

[6] = tested on: morningglory (Ipomoea coccinea); test: Test B pre-/postemergence plant response
Outline: as §1

[7] = tested on: velvetleaf (Abutilon theophrasti); test: Test B pre-/postemergence plant response
Outline: as §1

wild oat (Avena fatua) = test: Test B pre-/postemergence plant response
Outline: as §1

[8] = tested on: yellow nutsedge (Cyperus esculentus); test: Test B pre-/postemergence plant response
Outline: as §1

[9] = tested on: barnyardgrass (Echinochloa crus-galli); test: Test B flooded paddy test plant response
Outline: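 Step one: raise plants to 2 leaves. Step two: flood pots 3 cm over the soil and apply compound into the water, keeping this depth. Step three: after 13–15 greenhouse days, score visually versus controls, 0–100, where 100 means complete control.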

[10] = tested on: canarygrass (Phalaris minor); test: Test B postemergence plant response; conditions: for Plant response rating, Canarygrass: Postemergence
Protocol: (§2) At the same time, plants selected from these crop and weed species and also winter barley (Hordeum vulgare), canarygrass (Phalaris minor), chickweed (Stellaria media) and windgrass (Apera spica-venti) were treated with postemergence applications of some of the test chemicals formulated in the same manner. Plants ranged in height from 2 to 18 cm (1- to 4-leaf stage) for postemergence treatments.
(§3) Plant species in the flooded paddy test consisted of rice (Oryza sativa), umbrella sedge (Cyperus difformis), ducksalad (Heteranthera limosa) and barnyardgrass (Echinochloa crus-galli) grown to the 2-leaf stage for testing. At time of treatment, test pots were flooded to 3 cm above the soil surface, treated by application of test compounds directly to the paddy water, and then maintained at that water depth for the duration of the test. Treated plants and controls were maintained in a greenhouse for 13 to 15 days, after which time all species were compared to controls and visually evaluated. Plant response ratings, summarized in Table B, are based on a scale of 0 to 100 where 0 is no effect and 100 is complete control. A dash (-) response means no test result.

[11] = tested on: chickweed (Stellaria media); test: Test B postemergence plant response; conditions: for Plant response rating, Chickweed: Postemergence
Protocol: as §2, §3

[12] = tested on: windgrass (Apera spica-venti); test: Test B postemergence plant response; conditions: for Windgrass plant response rating: postemergence, 0-100 scale; for Plant response rating, Windgrass: Postemergence
Protocol: as §2, §3

[13] = tested on: winter barley (Hordeum vulgare); test: Test B postemergence plant response; conditions: for Plant response rating, Barley: Postemergence, scale 0 to 100, 0 no effect, 100 complete control
Protocol: as §2, §3

[14] = Preemergence, scale 0 to 100 (0 no effect, 100 complete control)
[15] = Preemergence, 16 g ai/ha, scale 0 to 100 (0 no effect, 100 complete control)
[16] = Preemergence, 31 g ai/ha, 0 to 100 scale, 0 no effect, 100 complete control
[17] = Preemergence, 62 g ai/ha, scale 0 to 100
[18] = Preemergence, 8 g ai/ha, scale 0 to 100
[19] = Preemergence, 16 g ai/ha, scale 0 to 100
[20] = Preemergence, 31 g ai/ha, scale 0 to 100 (0 no effect, 100 complete control)
[21] = Flood (flooded paddy test), 62 g ai/ha, scale 0 to 100, 0 no effect, 100 complete control
[22] = Flood (flooded paddy test), 125 g ai/ha, scale 0 to 100, 0 no effect, 100 complete control
[23] = Flood (flooded paddy test), 250 g ai/ha, scale 0 to 100, 0 no effect, 100 complete control
[24] = Flood, 31 g ai/ha, scale 0 to 100
[25] = Postemergence, 16 g ai/ha, scale 0 to 100
[26] = Postemergence, 31 g ai/ha, scale 0 to 100
[27] = Postemergence, 62 g ai/ha, scale 0 to 100, 0 no effect, 100 complete control
[28] = 8 g ai/ha, postemergence, 0-100 scale
[29] = 16 g ai/ha, postemergence, 0-100 scale
[30] = 62 g ai/ha, scale 0 to 100, 0 no effect, 100 complete control

Cc1cc(-c2ccc(Cl)cc2)nn1-c1c(OS(=O)(=O)c2ccccc2[N+](=O)[O-])cnn(C)c1=O [Compound 51]
Bermudagrass plant response rating [1, 14]: 60 | Plant response rating, Bermudagrass [1, 15]: 100 | Plant response rating, Bermudagrass [1, 16]: 100 | Plant response rating, Bermudagrass [1, 17]: 100 | Plant response rating, Blackgrass [2, 15]: 98 | Plant response rating, Blackgrass [2, 16]: 98 | Plant response rating, Blackgrass [2, 17]: 100 | Blackgrass plant response rating ([2]; Preemergence, scale 0 to 100): 50 | Plant response rating, Corn (corn (Zea mays); [16]): 60 | Plant response rating, Corn (corn (Zea mays); [17]): 80 | Plant response rating, Nightshade, E. B. ([3]; 31 g ai/ha, scale 0 to 100 (0 no effect, 100 complete control)): 0 | Plant response rating, Nightshade, E. B. ([3]; 62 g ai/ha, scale 0 to 100): 0 | Plant response rating, Foxtail, Giant [4, 16]: 100 | Plant response rating, Foxtail, Giant [4, 17]: 100 | Foxtail, Giant plant response rating [4, 18]: 80 | Foxtail, Giant plant response rating [4, 19]: 100 | Plant response rating, Lambsquarters [5, 16]: 0 | Plant response rating, Lambsquarters [5, 17]: 0 | Plant response rating, Morningglory [6, 20]: 0 | Plant response rating, Morningglory [6, 17]: 0 | Morningglory plant response rating [6, 18]: 0 | Morningglory plant response rating [6, 19]: 0 | Plant response rating, Velvetleaf [7, 20]: 0 | Plant response rating, Velvetleaf ([7]; Preemergence, 62 g ai/ha, 0 to 100 scale, 0 no effect, 100 complete control): 0 | Velvetleaf plant response rating [7, 18]: 0 | Velvetleaf plant response rating [7, 19]: 0 | Plant response rating, Oat, Wild (wild oat (Avena fatua); [20]): 80 | Plant response rating, Oat, Wild (wild oat (Avena fatua); [17]): 90 | Oat, Wild plant response rating (wild oat (Avena fatua); [18]): 0 | Oat, Wild plant response rating (wild oat (Avena fatua); [19]): 10 | Plant response rating, Nutsedge, Yellow [8, 20]: 0 | Plant response rating, Nutsedge, Yellow [8, 17]: 0 | Nutsedge, Yellow plant response rating [8, 18]: 0 | Nutsedge, Yellow plant response rating [8, 19]: 0 | Plant response rating, Barnyardgrass [9, 21]: 0 | Plant response rating, Barnyardgrass [9, 22]: 10 | Plant response rating, Barnyardgrass [9, 23]: 30 | Plant response rating, Barnyardgrass [9, 24]: 0

COCc1cc(-c2ccc(Br)cc2)nn1-c1c(O)cnn(C)c1=O [Compound 68]
Bermudagrass plant response rating ([1]; postemergence, 0-100 scale): 0 | Plant response rating, Bermudagrass [1, 25]: 0 | Plant response rating, Bermudagrass [1, 26]: 0 | Plant response rating, Bermudagrass [1, 27]: 0 | Blackgrass plant response rating ([2]; postemergence, 0-100 scale): 0 | Plant response rating, Blackgrass [2, 25]: 0 | Plant response rating, Blackgrass [2, 26]: 50 | Plant response rating, Blackgrass [2, 27]: 85 | Corn plant response rating (corn (Zea mays); [28]): 0 | Plant response rating, Corn (corn (Zea mays); [25]): 0 | Plant response rating, Corn (corn (Zea mays); [26]): 30 | Plant response rating, Corn (corn (Zea mays); [27]): 95 | Foxtail, Giant plant response rating [4, 28]: 10 | Plant response rating, Foxtail, Giant [4, 25]: 60 | Plant response rating, Foxtail, Giant [4, 26]: 65 | Plant response rating, Foxtail, Giant [4, 27]: 90 | Lambsquarters plant response rating [5, 28]: 0 | Lambsquarters plant response rating [5, 29]: 0 | Plant response rating, Lambsquarters [5, 26]: 0 | Plant response rating, Lambsquarters [5, 27]: 0 | Morningglory plant response rating [6, 28]: 0 | Morningglory plant response rating [6, 29]: 0 | Plant response rating, Morningglory [6, 26]: 0 | Plant response rating, Morningglory [6, 27]: 0 | Velvetleaf plant response rating [7, 28]: 0 | Velvetleaf plant response rating [7, 29]: 0 | Plant response rating, Velvetleaf [7, 26]: 0 | Plant response rating, Velvetleaf [7, 27]: 0 | Oat, Wild plant response rating (wild oat (Avena fatua); [28]): 0 | Oat, Wild plant response rating (wild oat (Avena fatua); [29]): 0 | Plant response rating, Oat, Wild (wild oat (Avena fatua); [26]): 5 | Plant response rating, Oat, Wild (wild oat (Avena fatua); [27]): 40 | Nutsedge, Yellow plant response rating [8, 28]: 0 | Nutsedge, Yellow plant response rating [8, 29]: 0 | Plant response rating, Nutsedge, Yellow [8, 26]: 0 | Plant response rating, Nutsedge, Yellow [8, 27]: 0 | Canarygrass plant response rating [10, 28]: 0 | Plant response rating, Canarygrass ([10]; 16 g ai/ha, scale 0 to 100): 0 | Plant response rating, Canarygrass ([10]; 31 g ai/ha, scale 0 to 100): 0 | Plant response rating, Canarygrass [10, 30]: 10 | Chickweed plant response rating [11, 28]: 0 | Plant response rating, Chickweed ([11]; 16 g ai/ha, scale 0 to 100): 0 | Plant response rating, Chickweed ([11]; 31 g ai/ha, scale 0 to 100): 0 | Plant response rating, Chickweed [11, 30]: 0 | Windgrass plant response rating ([12]; 8 g ai/ha): 0 | Windgrass plant response rating ([12]; 16 g ai/ha): 0 | Plant response rating, Windgrass ([12]; 31 g ai/ha, scale 0 to 100): 0 | Plant response rating, Windgrass [12, 30]: 35 | Barley plant response rating [13, 28]: 0 | Plant response rating, Barley ([13]; 16 g ai/ha): 0 | Plant response rating, Barley ([13]; 31 g ai/ha): 0 | Plant response rating, Barley ([13]; 62 g ai/ha): 0 | Plant response rating, Barnyardgrass [9, 21]: 0 | Plant response rating, Barnyardgrass [9, 22]: 0 | Plant response rating, Barnyardgrass [9, 23]: 0 | Plant response rating, Barnyardgrass [9, 24]: 0

Cn1ncc(O)c(-c2nn(-c3ccc(Cl)cc3)cc2Br)c1=O [Compound 31]
Bermudagrass plant response rating [1, 14]: 95 | Plant response rating, Bermudagrass [1, 15]: 100 | Plant response rating, Bermudagrass [1, 16]: 100 | Plant response rating, Bermudagrass [1, 17]: 100 | Plant response rating, Blackgrass [2, 15]: 90 | Plant response rating, Blackgrass [2, 16]: 98 | Plant response rating, Blackgrass [2, 17]: 100 | Blackgrass plant response rating ([2]; Preemergence, scale 0 to 100): 80 | Plant response rating, Corn (corn (Zea mays); [15]): 0 | Plant response rating, Corn (corn (Zea mays); [16]): 60 | Plant response rating, Corn (corn (Zea mays); [17]): 90 | Plant response rating, Nightshade, E. B. ([3]; 16 g ai/ha, scale 0 to 100 (0 no effect, 100 complete control)): 0 | Plant response rating, Nightshade, E. B. ([3]; 31 g ai/ha, 0 to 100 scale, 0 no effect, 100 complete control): 0 | Plant response rating, Nightshade, E. B. ([3]; 62 g ai/ha, scale 0 to 100): 0 | Nightshade, E. B. plant response rating ([3]; 8 g ai/ha, scale 0 to 100): 0 | Plant response rating, Foxtail, Giant [4, 15]: 90 | Plant response rating, Foxtail, Giant [4, 16]: 100 | Plant response rating, Foxtail, Giant [4, 17]: 100 | Foxtail, Giant plant response rating [4, 18]: 90 | Plant response rating, Lambsquarters [5, 15]: 0 | Plant response rating, Lambsquarters [5, 16]: 0 | Plant response rating, Lambsquarters [5, 17]: 0 | Lambsquarters plant response rating [5, 18]: 0 | Plant response rating, Morningglory [6, 15]: 0 | Plant response rating, Morningglory [6, 16]: 0 | Plant response rating, Morningglory [6, 17]: 0 | Morningglory plant response rating [6, 18]: 0 | Plant response rating, Velvetleaf [7, 15]: 0 | Plant response rating, Velvetleaf [7, 16]: 0 | Plant response rating, Velvetleaf [7, 17]: 0 | Velvetleaf plant response rating [7, 18]: 0 | Plant response rating, Oat, Wild (wild oat (Avena fatua); [15]): 45 | Plant response rating, Oat, Wild (wild oat (Avena fatua); [16]): 70 | Plant response rating, Oat, Wild (wild oat (Avena fatua); [17]): 90 | Plant response rating, Nutsedge, Yellow [8, 15]: 0 | Plant response rating, Nutsedge, Yellow [8, 16]: 0 | Plant response rating, Nutsedge, Yellow [8, 17]: 0 | Nutsedge, Yellow plant response rating [8, 18]: 0 | Plant response rating, Barnyardgrass [9, 21]: 0 | Plant response rating, Barnyardgrass [9, 22]: 0 | Plant response rating, Barnyardgrass [9, 23]: 0 | Plant response rating, Barnyardgrass [9, 24]: 0
